Source: ChEMBL document CHEMBL1201862, “PubChem BioAssay data set” (2004)
Active and inactive are the calls of the source.

Experiments:
[1] = biological target: Voltage-gated inwardly rectifying potassium channel KCNH2 (Homo sapiens, UniProt Q12809); test: concentration-dependent hERG rescue from blockers – cell-based, thallium flux, dose response (AID 2121); type: ADME
Major prion protein = Major prion protein (Homo sapiens, UniProt P04156); type: functional, cell-based
[2] = biological target: T1, Tyrosine-protein phosphatase non-receptor type 7 (Homo sapiens, UniProt P35236); test: HePTP tyrosine phosphatase activity blockers – biochemical, absorbance, leukemia target, primary screen (AID 521); type: functional
T1 sequence (P35236 whole entry): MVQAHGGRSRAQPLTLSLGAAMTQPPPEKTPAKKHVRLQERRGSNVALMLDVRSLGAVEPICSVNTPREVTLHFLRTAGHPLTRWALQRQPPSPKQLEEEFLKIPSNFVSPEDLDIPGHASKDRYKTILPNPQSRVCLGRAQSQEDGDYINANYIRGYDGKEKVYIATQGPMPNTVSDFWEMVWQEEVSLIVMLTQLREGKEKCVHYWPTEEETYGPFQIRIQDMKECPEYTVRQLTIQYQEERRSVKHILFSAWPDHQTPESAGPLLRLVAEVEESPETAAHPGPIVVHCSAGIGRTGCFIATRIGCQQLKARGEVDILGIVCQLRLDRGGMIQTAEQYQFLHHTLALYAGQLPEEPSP

[3] = biological target: T2, Dual specificity protein phosphatase 6 (Rattus norvegicus, UniProt Q64346); test: inhibition of rat DUSP6 enzyme activity – biochemical, in vitro, primary screen (AID 425)
T2 sequence (Q64346 whole entry): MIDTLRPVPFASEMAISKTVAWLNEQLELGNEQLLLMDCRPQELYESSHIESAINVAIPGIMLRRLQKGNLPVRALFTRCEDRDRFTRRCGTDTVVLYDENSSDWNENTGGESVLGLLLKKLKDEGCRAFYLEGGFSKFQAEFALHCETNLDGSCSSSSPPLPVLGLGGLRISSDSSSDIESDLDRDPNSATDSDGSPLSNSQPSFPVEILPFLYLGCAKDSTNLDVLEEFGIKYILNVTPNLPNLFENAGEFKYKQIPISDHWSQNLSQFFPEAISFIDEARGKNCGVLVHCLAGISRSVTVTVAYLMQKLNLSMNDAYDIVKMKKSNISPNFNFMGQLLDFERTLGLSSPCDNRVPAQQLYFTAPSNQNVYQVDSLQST

[4] = NIH3T3 cell viability loss – ATP luminescence, mouse fibroblasts, counter-screen, dose response (AID 2010); type: functional, cell-based;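 further: cells exposed to compound for about 90 hours before reading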
[5] = HEK-293T viability loss after treatment – luminescence, T-cell screen hits, cytotoxicity control for TCR NF-kB inhibitor project, dose response (AID 489026); type: functional, cell-based;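 further: cells exposed to compound about 14 hours before the viability readout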
INS1 = test: INS-1E survival protection against cytokine death – cell-based, luminescence, retest, dose response (AID 449756); type: functional; settings: Rattus norvegicus;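 further: cell death triggered by IL-1 beta plus TNF-alpha plus IFN-gamma mixture; protective hits raise ATP signal compared with cytokine alone wells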
[6] = biological target: T3, Sphingosine 1-phosphate receptor 2 (Homo sapiens, UniProt O95136); test: Dose Response Cell Based Assay for Antagonists of the S1P2 Receptor. [Related pubchem assays: 856, 736 ]; type: functional
T3 sequence (O95136 whole entry): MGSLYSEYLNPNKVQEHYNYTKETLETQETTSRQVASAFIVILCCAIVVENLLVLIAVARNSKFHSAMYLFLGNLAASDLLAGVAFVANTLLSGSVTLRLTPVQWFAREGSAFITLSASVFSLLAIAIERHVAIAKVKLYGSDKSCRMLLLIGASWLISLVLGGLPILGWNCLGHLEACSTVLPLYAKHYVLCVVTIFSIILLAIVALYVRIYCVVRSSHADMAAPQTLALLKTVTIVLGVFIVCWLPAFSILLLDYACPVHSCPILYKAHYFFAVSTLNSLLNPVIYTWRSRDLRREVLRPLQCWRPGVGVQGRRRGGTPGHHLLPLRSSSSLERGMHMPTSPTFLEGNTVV

[7] = Trypanosoma cruzi growth suppression in host cells – NIH3T3 host cells, beta-gal luminescence, confirmation (AID 2044); type: functional, cell-based;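 further: intracellular parasites grown in NIH/3T3 mouse fibroblasts as host cells; luminescent beta-galactosidase reporter signal from transgenic T. cruzi replicating inside host cells; inhibitors lower the luminescence signal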
[8] = non-specific 3'UTR reporter inhibition in Clone20-Shn3RL – cell-based, Renilla luciferase, cherry-picked, counter-screen for Shn3 inhibitor project, dose response (AID 624133); type: functional
[9] = loss of viability in HepG2 cells – cell-based, CellTiter-Glo, cherry-picked, cytotoxicity control for Shn3 inhibitor project, dose response (AID 624134); type: functional
[10] = reduction of Shn3 3'UTR-driven luciferase in osteoblasts – cell-based, Clone20 osteoblasts, firefly luciferase, cherry-picked, dose response (AID 624132); type: functional;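 further: firefly luciferase luminescence from reporter carrying the Shn3 3'UTR in osteoblasts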
[11] = biological target: T3, Sphingosine 1-phosphate receptor 2; test: Dose Response Cell Based Assay for Agonists of the S1P2 Receptor. [Related pubchem assays: 729, 736, 843 ]; type: functional
Vero [12] = test: cells; type: functional; settings: Chlorocebus sabaeus
[13] = biological target: T4, Replicative DNA helicase DnaB (Mycobacterium tuberculosis, UniProt P9WMR3); test: DnaB intein splicing inhibitors, dose response, biochemical, cell-free fluorescence (AID 449749); type: functional
T4 sequence (P9WMR3 whole entry): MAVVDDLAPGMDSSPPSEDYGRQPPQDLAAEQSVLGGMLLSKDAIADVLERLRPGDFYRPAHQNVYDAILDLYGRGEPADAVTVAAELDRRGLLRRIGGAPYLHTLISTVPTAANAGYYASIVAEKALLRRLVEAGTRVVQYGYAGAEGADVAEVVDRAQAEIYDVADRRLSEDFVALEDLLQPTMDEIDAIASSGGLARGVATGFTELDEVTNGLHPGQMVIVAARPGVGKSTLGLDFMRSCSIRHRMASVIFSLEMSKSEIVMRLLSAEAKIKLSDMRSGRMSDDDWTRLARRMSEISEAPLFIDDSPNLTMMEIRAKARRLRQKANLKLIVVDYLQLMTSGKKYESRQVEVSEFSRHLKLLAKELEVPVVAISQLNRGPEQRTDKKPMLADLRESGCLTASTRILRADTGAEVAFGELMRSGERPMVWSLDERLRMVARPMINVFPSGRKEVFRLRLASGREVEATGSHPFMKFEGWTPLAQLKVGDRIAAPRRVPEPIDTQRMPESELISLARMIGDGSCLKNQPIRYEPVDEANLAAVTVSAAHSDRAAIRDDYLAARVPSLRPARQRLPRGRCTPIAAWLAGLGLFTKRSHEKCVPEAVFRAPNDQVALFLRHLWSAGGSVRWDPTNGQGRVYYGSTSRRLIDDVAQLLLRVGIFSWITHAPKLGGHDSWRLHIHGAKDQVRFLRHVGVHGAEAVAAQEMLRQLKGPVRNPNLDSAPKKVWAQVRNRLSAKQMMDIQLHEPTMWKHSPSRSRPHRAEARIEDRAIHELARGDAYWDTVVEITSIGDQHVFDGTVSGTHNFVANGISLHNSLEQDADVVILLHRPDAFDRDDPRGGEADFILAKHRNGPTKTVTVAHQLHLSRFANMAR

Protein RecA = biological target: T5, Protein RecA (Mycobacterium tuberculosis, UniProt P9WHJ3); test: Fluorescence Cell-Free Homogeneous Dose Retest to Identify Inhibitors of RecA-Intein Splicing Activity. [Related pubchem assays (depositor defined):AID2097, AID2223, AID489010, AID492950]; type: functional
T5 sequence (P9WHJ3 whole entry): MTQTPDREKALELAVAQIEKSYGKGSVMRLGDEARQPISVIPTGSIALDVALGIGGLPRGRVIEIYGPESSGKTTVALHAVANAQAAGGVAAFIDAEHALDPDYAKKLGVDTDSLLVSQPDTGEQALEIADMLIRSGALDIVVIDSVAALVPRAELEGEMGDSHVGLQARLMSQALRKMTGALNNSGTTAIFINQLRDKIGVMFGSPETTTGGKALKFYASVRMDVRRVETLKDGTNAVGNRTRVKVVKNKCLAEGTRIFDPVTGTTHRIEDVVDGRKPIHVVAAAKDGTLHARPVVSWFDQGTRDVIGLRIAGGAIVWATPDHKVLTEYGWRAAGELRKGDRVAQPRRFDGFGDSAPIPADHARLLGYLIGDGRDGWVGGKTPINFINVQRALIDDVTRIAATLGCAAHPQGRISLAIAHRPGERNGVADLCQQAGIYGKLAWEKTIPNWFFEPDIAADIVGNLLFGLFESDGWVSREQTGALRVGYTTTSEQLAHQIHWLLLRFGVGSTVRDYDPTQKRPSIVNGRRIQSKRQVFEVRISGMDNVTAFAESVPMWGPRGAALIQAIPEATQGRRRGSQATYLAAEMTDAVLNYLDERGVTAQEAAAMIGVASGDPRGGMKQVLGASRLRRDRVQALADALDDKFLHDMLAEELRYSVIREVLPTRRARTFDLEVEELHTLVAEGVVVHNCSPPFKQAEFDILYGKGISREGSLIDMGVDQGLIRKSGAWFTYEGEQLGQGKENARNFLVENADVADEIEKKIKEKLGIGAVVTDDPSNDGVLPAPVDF

[14] = biological target: T6, DNA repair protein RAD52 homolog (Homo sapiens, UniProt P43351); type: functional, biochemical
T6 sequence (P43351 whole entry): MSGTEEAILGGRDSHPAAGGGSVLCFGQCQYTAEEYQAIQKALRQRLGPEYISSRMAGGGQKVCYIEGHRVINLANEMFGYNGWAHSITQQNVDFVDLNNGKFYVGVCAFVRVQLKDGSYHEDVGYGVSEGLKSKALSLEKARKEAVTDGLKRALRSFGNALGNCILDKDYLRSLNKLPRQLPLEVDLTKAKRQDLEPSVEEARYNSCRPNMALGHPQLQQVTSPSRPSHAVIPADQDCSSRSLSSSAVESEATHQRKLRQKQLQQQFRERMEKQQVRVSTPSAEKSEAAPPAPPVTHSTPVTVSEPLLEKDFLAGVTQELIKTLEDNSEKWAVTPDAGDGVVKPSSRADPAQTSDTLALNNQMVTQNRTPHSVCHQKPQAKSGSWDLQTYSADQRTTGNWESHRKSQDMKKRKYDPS

Vero [15] = test: inhibition of WNV-induced cytopathic effect – cell-based, CPE readout (AID 1621); type: functional; settings: Chlorocebus sabaeus
[16] = biological target: T7, DNA repair and recombination protein RAD54-like (Homo sapiens, UniProt Q92698); test: RAD54 Holliday junction migration blockers – biochemical, fluorescence, cherry-picked samples, dose series, confirmation (AID 651657); type: functional
T7 sequence (Q92698 whole entry): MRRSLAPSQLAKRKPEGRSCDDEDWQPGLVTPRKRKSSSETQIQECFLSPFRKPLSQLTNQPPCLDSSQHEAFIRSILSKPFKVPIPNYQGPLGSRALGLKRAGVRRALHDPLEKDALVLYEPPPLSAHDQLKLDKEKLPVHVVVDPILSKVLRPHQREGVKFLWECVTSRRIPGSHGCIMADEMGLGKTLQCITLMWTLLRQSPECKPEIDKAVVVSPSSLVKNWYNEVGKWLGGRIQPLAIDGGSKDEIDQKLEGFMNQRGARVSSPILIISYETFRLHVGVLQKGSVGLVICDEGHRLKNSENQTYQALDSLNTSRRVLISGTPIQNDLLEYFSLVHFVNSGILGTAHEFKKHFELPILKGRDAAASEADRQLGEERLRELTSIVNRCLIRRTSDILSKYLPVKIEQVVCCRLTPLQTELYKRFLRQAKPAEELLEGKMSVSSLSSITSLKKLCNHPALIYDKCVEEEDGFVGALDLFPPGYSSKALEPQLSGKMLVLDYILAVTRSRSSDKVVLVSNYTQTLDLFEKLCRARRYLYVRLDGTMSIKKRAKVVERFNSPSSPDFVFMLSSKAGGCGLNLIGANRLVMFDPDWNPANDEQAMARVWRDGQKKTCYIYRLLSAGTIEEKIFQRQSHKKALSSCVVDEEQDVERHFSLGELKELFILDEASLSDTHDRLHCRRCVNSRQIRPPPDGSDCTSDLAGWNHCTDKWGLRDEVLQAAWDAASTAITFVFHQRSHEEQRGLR

Cytochrome P450 2C19 = Cytochrome P450 2C19 (Homo sapiens, UniProt P33261); test: Cytochrome panel assay with activity outcomes. Panel member name: p450-cyp2c19 Compounds with AC50 equal or less than 10 uM are considered active; type: functional; settings: read-out: AC50
Cytochrome P450 2C19, sequence (P33261 whole entry): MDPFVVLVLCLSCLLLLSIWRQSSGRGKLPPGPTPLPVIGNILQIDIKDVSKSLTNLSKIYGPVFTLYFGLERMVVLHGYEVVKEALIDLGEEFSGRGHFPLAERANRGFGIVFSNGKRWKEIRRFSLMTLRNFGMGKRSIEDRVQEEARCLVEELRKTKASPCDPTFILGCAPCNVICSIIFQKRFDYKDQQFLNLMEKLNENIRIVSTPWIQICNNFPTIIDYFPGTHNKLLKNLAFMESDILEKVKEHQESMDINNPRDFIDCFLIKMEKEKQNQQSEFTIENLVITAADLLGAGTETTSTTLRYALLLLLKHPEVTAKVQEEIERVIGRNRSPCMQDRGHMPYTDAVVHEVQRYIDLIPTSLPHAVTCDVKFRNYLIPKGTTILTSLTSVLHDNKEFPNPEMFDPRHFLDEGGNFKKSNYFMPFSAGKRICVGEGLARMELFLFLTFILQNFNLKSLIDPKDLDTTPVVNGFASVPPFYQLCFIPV

[17] = biological target: T2, Dual specificity protein phosphatase 6; type: functional
[18] = biological target: Glyceraldehyde-3-phosphate dehydrogenase (Homo sapiens, UniProt P04406)
Glyceraldehyde-3-phosphate dehydrogenase, sequence (P04406 whole entry): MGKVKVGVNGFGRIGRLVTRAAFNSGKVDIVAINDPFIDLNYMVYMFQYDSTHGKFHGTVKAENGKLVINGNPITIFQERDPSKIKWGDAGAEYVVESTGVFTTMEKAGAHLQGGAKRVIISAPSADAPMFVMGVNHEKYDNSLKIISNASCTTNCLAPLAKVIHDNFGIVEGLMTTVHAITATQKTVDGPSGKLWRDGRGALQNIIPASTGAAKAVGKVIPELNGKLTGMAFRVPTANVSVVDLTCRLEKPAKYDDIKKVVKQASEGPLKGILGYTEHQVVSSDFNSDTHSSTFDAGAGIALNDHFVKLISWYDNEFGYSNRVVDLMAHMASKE

[19] = biological target: T1, Tyrosine-protein phosphatase non-receptor type 7; type: functional
Bcl-2-like protein 10 = biological target: T8, Bcl-2-like protein 10 (Homo sapiens, UniProt Q9HD36); test: Bcl-B/TR3 peptide binding disruption – biochemical, fluorescence polarization, FITC-TR3 peptide, selectivity assay for Bfl-1 inhibitor project, primary screen (AID 748);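 further: fluorescence polarization from a fluorescein-labelled TR3 peptide binding purified Bcl-B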
T8 sequence (Q9HD36 whole entry): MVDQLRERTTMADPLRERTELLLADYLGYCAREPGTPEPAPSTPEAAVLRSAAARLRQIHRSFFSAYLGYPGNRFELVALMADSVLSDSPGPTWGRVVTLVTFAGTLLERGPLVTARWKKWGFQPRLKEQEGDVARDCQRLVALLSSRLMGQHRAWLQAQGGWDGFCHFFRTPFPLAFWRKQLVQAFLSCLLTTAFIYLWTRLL

[20] = biological target: T2, Dual specificity protein phosphatase 6

Voltage-gated inwardly rectifying potassium channel KCNH2, sequence (Q12809 whole entry): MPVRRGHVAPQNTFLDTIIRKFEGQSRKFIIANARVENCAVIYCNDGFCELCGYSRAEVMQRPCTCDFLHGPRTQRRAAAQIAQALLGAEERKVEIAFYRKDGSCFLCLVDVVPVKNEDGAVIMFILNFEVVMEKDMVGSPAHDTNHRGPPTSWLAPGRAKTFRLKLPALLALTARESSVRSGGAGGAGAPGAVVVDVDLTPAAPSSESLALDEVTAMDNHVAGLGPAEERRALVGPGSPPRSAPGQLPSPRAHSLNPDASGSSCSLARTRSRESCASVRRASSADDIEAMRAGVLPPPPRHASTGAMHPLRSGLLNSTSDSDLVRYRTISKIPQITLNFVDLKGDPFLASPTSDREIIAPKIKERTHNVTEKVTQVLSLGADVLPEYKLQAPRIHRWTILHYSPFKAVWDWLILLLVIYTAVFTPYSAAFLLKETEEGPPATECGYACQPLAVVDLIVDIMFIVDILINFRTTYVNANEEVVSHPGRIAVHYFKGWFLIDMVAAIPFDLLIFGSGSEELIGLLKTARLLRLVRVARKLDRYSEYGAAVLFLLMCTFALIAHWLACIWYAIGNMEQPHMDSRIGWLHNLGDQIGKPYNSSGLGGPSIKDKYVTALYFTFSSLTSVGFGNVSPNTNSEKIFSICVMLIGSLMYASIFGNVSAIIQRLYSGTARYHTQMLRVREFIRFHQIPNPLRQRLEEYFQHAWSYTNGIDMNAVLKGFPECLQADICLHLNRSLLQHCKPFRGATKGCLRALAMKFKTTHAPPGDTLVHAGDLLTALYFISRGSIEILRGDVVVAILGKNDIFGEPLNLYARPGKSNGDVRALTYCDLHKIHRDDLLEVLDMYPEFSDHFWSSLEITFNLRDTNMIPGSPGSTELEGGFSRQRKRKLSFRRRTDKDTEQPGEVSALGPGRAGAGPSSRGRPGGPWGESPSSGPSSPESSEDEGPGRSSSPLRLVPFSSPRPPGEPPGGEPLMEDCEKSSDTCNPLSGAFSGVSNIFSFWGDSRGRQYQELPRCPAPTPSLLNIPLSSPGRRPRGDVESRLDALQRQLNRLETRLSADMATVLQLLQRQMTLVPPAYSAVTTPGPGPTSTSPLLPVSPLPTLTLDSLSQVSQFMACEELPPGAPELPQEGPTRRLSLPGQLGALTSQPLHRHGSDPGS

Structure (SMILES): COc1ccc(-c2csc(NC(=S)NC(=O)c3cccs3)n2)cc1Br
- EC50 [1]: 1.41 µM (active)

Structure (SMILES): NC(=O)CSc1nnc2n(-c3ccccc3)c(=O)c3c4c(sc3n12)CCCCC4
- IC50 (Major prion protein): 4.66 µM (active)
- IC50 [2]: 2.54 µM (active)
- IC50 (cells): 130 µM (inactive)
- IC50 [3]: > 10 µM (not active)

Structure (SMILES): Nc1nc(Cl)cc(N2CCC(c3cc(-c4ccc(Cl)cc4)[nH]n3)CC2)n1
- EC50 [4]: 7.5 µM (active)
- IC50 [5]: 64.3 µM (inactive)
- AC50 (INS1): 4.41 µM (active)
- IC50 [6]: 7.01 µM (active)
- EC50 [7]: 2.13 µM (active)
- AC50 [8]: 11.1 µM (active)
- AC50 [9]: 19.5 µM (active)
- AC50 [10]: 2.43 µM (active)

Structure (SMILES): Nc1c(C(=O)NCCCc2ccccc2)c2nc3ccccc3nc2n1Cc1cccs1
- EC50 [11]: 2.2 µM (active)
- CC50 (Vero [12]): > 25 µM (active)
- AC50 [13]: 29.3 µM (active)
- EC50 [4]: > 60 µM (not active)
- EC50 (Protein RecA): 3.3 µM (active)
- EC50 [7]: 2.17 µM (active)

Structure (SMILES): COC(=O)c1sc2cc(C(F)(F)F)cnc2c1-c1ccccc1
- IC50 [6]: > 30 µM (not active)

Structure (SMILES): CCCN(CCC)CCCN=C(S)Nc1ccc2nc(N3CCCC3)cc(C)c2c1
- EC50 [4]: 10.1 µM (active)
- AC50 [14]: 9.06 µM (active)
- EC50 [7]: 1.96 µM (active)
- IC50 (Vero [15]): 25.4 µM (active)
- AC50 [16]: 19.4 µM (active)

Structure (SMILES): Cc1ccc(C)n1C(Cc1ccccc1)C(=O)O (configuration not stated)
- AC50 (Cytochrome P450 2C19): 22.4 µM (inconclusive)
- IC50 [17]: > 100 µM (inactive)
- IC50 [18]: > 100 µM (not active)
- IC50 [19]: 28 µM (active)
- IC50 (Bcl-2-like protein 10): < 0.195 µM (inactive)
- IC50 [20]: > 100 µM (inactive)
- IC50 [3]: > 10 µM (not active)
